Reference: ChEMBL document CHEMBL1201862, “PubChem BioAssay data set” (2004)
Activity calls are given as the source filed them.

Legend:
[1] = molecular target: T1, Corticotropin-releasing factor receptor 2/Corticotropin-releasing factor-binding protein (Homo sapiens, UniProt P24387+Q13324); experiment: activators of CRF receptor 2 with binding protein – uHTS hits, confirmation (AID 602473); format: functional; conditions: read-out: EC50_Mean
T1 sequence (Q13324 whole entry): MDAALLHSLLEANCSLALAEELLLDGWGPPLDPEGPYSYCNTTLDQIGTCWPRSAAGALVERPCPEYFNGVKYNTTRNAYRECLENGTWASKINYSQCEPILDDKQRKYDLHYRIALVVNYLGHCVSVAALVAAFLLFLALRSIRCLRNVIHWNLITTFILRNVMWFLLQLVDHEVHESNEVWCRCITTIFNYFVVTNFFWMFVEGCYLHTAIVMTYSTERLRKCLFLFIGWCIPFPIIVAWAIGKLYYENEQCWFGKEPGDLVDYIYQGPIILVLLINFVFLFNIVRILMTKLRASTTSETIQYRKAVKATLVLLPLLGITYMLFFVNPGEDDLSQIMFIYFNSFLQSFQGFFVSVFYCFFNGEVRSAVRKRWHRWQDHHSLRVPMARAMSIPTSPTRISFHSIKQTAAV
T1 sequence (P24387 whole entry): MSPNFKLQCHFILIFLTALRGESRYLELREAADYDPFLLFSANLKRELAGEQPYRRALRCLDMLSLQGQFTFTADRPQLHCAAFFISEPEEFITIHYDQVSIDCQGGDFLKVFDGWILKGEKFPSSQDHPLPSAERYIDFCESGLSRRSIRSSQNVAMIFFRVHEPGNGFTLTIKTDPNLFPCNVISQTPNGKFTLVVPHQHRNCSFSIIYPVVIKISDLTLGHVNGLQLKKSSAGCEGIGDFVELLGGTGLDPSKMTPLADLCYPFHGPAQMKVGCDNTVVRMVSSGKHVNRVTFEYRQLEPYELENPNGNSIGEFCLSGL

[2] = CRF-BP/CRF-R2 complex antagonists, dose response, cell-based, uHTS hits, 384-well (AID 651639); format: functional, Homo sapiens; conditions: read-out: IC50_Mean
[3] = molecular target: T1, Corticotropin-releasing factor receptor 2/Corticotropin-releasing factor-binding protein; experiment: Dose Response confirmation of uHTS hits for small molecule antagonists of the CRF-binding protein and CRF-R2 receptor complex.; format: functional; conditions: read-out: IC50_Mean
[4] = molecular target: Adenosylmethionine-8-amino-7-oxononanoate aminotransferase (Mycobacterium tuberculosis, UniProt P9WQ81); experiment: Mycobacterium tuberculosis BioA enzyme inhibitor Measured in Biochemical System Using Plate Reader - 2163-02_Inhibitor_Dose_CherryPick_Activity.; format: functional, Mycobacterium tuberculosis UT205
[5] = molecular target: T2, Polyadenylate-binding protein 1 (Homo sapiens, UniProt P11940); experiment: PABP1 MLLE–PAM2 interaction inhibitors, dose response, miRNA deadenylation inhibitor project, biochemical, fluorescence polarization, Cy5-PAM2 peptide, secondary (AID 602260); format: functional; conditions: read-out: IC50_Mean
[6] = molecular target: T2, Polyadenylate-binding protein 1; experiment: PABP1 MLLE–PAM2 binding inhibitor potency, dose response, biochemical, fluorescence polarization, FITC-PAM2 peptide (AID 602259); format: functional; conditions: read-out: IC50_Mean
[7] = test system: INS1; experiment: beta cell apoptosis inhibitors, cytokine rescue, dose response, luminescence, retest (AID 449756); format: functional, cell-based; conditions: Rattus norvegicus;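 also: cell death triggered by IL-1 beta plus TNF-alpha plus IFN-gamma mixture; protective hits raise ATP signal compared with cytokine alone wells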
[8] = molecular target: Protein Wnt-3a (Mus musculus, UniProt P27467); experiment: Wnt3a-driven reporter signaling inhibition, dose response, selectivity assay for Gli-SUFU antagonist project, Wnt-LIGHT cells, luminescence (AID 651570); format: functional; conditions: read-out: IC50_Mean;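 also: Wnt-LIGHT reporter cells stimulated with conditioned medium from Wnt3a-producing cells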
[9] = StAR promoter reporter inhibition counter-screen, dose response, counter-screen for LRH-1 inverse agonist project, cell-based, luminescence, luciferase reporter (AID 651969); format: functional
[10] = molecular target: Nuclear receptor subfamily 5 group A member 2 (Homo sapiens, UniProt O00482); format: functional, cell-based;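 also: HEK293T cells transfected with LRH-1 and a StAR promoter luciferase reporter; potency for inhibitors that lower LRH-1 driven reporter light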
[11] = molecular target: Steroidogenic factor 1 (Homo sapiens, UniProt Q13285); experiment: Counterscreen for inverse agonists of the liver receptor homolog-1 (LRH-1; NR5A2): Luminescence-based cell-based high throughput dose response assay to identify inverse agonists of the Steroidogenic Factor 1 Nuclear Receptor (SF1; NR5A1).; format: functional
[12] = molecular target: T3, Histone-lysine N-methyltransferase NSD2 (Homo sapiens, UniProt O96028); format: biochemical
T3 sequence (O96028 whole entry): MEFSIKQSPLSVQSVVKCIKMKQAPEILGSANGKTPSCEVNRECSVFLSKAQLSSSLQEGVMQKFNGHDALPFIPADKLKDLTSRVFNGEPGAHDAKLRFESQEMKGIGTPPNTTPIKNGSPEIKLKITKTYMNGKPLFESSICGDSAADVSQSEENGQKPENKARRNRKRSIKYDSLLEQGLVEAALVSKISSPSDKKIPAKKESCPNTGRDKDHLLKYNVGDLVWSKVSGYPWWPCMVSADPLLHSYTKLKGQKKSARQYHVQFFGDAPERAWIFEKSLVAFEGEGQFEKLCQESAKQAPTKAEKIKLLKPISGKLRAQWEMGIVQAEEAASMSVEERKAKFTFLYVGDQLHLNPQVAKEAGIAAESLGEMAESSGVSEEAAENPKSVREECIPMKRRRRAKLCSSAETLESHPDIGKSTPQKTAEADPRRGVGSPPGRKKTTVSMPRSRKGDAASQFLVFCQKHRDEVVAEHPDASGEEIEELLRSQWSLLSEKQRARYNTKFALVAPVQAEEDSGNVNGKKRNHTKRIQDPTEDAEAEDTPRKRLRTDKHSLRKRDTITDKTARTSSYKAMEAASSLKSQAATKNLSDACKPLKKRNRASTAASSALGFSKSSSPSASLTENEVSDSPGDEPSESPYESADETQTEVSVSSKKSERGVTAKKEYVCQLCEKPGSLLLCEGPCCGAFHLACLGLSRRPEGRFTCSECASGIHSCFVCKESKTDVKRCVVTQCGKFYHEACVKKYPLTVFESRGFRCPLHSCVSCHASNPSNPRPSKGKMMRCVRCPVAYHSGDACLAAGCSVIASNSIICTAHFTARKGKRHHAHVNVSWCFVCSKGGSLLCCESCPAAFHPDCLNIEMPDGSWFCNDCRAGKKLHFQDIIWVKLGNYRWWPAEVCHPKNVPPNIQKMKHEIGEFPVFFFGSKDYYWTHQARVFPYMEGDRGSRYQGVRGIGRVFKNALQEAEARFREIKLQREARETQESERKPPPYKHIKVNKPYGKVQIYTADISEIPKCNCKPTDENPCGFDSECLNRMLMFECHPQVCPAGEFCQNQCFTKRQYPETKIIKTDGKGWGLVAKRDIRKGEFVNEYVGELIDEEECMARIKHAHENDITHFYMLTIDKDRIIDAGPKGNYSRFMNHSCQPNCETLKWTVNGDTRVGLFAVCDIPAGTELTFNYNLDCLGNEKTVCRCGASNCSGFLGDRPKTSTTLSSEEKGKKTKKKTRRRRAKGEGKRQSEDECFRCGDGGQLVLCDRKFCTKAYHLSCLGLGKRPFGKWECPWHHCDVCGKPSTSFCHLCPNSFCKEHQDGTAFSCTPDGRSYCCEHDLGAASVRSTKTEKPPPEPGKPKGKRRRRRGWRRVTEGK

[13] = molecular target: T4, Apoptotic protease-activating factor 1 (Homo sapiens, UniProt O14727); format: functional
T4 sequence (O14727 whole entry): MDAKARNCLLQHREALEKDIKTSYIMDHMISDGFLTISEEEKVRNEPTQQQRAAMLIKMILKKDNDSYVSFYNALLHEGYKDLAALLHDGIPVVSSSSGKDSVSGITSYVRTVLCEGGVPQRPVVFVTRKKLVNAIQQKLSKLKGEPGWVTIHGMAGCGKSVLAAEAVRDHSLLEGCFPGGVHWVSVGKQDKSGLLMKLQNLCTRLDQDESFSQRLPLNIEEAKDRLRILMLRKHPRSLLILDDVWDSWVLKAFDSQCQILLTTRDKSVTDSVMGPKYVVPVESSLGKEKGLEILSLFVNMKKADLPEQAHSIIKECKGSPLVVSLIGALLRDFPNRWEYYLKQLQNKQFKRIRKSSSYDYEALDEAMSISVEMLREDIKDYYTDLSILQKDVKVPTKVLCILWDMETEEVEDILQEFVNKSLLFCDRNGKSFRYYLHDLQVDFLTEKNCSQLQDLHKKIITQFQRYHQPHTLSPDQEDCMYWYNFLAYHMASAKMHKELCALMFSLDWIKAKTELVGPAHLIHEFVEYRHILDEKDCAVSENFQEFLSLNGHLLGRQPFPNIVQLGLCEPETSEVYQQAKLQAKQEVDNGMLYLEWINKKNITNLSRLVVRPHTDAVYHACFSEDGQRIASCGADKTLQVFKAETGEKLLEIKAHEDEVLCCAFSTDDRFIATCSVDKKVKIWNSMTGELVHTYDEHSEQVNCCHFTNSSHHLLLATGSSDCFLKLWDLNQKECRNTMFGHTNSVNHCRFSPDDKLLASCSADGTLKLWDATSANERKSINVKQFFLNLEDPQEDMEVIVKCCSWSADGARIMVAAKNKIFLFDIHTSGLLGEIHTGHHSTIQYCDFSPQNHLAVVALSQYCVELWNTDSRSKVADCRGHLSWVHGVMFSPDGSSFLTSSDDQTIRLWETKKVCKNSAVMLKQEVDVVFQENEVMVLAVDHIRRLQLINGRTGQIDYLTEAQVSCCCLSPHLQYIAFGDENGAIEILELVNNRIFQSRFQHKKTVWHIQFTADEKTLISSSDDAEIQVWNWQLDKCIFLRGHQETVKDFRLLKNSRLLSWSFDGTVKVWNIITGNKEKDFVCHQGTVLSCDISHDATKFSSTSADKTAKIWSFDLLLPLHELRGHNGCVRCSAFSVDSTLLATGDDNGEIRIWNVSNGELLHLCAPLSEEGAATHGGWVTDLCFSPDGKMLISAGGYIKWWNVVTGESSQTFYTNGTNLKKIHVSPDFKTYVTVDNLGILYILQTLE

[14] = ARNT/TACC3 interaction disruptors, potency, confirmation, biochemical, AlphaScreen, cherry-picked samples (AID 651703); format: functional, Homo sapiens;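 also: His-tagged ARNT PAS-B domain paired with GST-TACC3 E629A dimer coactivator fragment; potency of inhibitors that break up the complex and lower AlphaScreen signal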
[15] = cytotoxicity in KRAS-transformed pancreatic duct cells, primary screen, cell-based, fluorescence, HTS (AID 431); format: functional; conditions: Homo sapiens;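 also: cell line used: HPDE-C7K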
[16] = cytotoxicity in HPDE-C7 cells, cell-based, fluorescence, HTS (AID 430); format: functional; conditions: Homo sapiens
[17] = Shn3 3'UTR reporter inhibitors, dose response, cell-based, Clone20 osteoblasts, firefly luciferase, cherry-picked (AID 624132); format: functional;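 also: firefly luciferase luminescence from reporter carrying the Shn3 3'UTR in osteoblasts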
[18] = control 3'UTR Renilla luciferase suppression, dose response, counter-screen for Shn3 inhibitor project, cell-based, Clone20-Shn3RL, cherry-picked (AID 624133); format: functional
[19] = molecular target: DNA repair and recombination protein RAD54-like (Homo sapiens, UniProt Q92698); experiment: inhibitors of human RAD54 branch migration, confirmation, biochemical, fluorescence, cherry-picked samples, dose series (AID 651657); format: functional
[20] = molecular target: T5, Interleukin-8 (Homo sapiens, UniProt P10145); experiment: Dose Response confirmation of uHTS small molecule hits for cystic fibrosis induced NFkb Inhibitors in a PAF-induced IL8 counterscreen.; format: functional; conditions: read-out: IC50_Mean
T5 sequence (P10145 whole entry): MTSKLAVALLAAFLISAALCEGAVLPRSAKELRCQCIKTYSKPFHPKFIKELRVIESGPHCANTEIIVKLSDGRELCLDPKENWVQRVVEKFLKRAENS

[21] = microbe, parasite or virus in culture; format: functional; conditions: Mycobacterium tuberculosis
[22] = test system: Vero; experiment: cells; format: functional; conditions: Chlorocebus sabaeus
[23] = test system: HEK293; experiment: inhibitors of LMP1-driven NF-kB reporter, dose response, cell-based, HEK293, luciferase, cherry-pick (AID 588343); format: functional; conditions: Homo sapiens
[24] = HepG2 cell cytotoxicity, dose response, cytotoxicity control for Shn3 inhibitor project, CellTiter-Glo, cherry-picked (AID 624134); format: functional, cell-based

T2 sequence (P11940 whole entry): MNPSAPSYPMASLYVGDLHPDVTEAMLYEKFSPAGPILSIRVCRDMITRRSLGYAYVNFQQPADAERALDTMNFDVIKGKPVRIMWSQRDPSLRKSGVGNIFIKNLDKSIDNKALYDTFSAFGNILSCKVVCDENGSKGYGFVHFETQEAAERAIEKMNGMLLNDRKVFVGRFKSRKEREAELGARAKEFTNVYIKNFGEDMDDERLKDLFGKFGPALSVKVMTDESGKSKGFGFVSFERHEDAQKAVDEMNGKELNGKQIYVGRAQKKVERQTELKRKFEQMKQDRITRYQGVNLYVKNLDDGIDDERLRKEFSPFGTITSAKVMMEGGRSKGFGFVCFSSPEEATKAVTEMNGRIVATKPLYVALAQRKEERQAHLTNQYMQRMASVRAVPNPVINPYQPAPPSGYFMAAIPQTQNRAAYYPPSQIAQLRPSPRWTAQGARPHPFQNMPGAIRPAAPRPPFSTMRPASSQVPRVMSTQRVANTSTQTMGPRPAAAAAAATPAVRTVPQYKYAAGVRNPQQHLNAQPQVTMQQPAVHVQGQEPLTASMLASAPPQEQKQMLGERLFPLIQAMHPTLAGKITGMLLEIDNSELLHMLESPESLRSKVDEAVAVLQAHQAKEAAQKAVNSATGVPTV
Chain of Protein Wnt-3a (P27467 whole entry): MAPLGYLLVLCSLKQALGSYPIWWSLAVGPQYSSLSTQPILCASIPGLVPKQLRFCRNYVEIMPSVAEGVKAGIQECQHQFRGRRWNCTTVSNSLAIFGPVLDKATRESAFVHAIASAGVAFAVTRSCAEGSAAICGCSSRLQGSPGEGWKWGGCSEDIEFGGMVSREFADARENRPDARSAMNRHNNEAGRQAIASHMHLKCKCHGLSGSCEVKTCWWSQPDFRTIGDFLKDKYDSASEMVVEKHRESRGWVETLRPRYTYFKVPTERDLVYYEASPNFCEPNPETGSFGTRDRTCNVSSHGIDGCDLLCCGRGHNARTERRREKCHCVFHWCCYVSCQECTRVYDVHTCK
Chain of Steroidogenic factor 1 (Q13285 whole entry): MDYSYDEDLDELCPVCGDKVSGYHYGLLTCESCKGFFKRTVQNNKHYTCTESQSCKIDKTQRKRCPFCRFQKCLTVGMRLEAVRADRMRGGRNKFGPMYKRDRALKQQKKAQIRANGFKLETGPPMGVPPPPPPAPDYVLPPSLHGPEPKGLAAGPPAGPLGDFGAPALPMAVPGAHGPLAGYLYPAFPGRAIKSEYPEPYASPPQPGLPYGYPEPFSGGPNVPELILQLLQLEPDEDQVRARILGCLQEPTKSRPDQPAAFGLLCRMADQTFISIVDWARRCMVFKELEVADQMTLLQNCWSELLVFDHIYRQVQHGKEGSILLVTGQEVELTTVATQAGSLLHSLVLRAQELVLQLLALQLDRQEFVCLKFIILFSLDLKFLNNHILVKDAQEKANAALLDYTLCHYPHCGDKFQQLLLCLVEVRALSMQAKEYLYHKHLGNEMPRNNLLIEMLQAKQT
Chain of Adenosylmethionine-8-amino-7-oxononanoate aminotransferase (P9WQ81 whole entry): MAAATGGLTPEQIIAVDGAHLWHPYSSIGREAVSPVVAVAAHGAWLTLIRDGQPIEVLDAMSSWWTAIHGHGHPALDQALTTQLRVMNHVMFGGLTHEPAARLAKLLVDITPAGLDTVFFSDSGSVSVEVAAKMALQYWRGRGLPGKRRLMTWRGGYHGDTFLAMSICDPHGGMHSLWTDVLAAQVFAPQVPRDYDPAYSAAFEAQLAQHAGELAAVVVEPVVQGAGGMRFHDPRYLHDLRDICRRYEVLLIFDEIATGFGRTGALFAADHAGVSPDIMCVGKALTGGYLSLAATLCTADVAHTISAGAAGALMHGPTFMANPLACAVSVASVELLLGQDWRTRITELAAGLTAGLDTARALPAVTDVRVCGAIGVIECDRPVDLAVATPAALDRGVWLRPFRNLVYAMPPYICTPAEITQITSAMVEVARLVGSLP
Chain of Nuclear receptor subfamily 5 group A member 2 (O00482 whole entry): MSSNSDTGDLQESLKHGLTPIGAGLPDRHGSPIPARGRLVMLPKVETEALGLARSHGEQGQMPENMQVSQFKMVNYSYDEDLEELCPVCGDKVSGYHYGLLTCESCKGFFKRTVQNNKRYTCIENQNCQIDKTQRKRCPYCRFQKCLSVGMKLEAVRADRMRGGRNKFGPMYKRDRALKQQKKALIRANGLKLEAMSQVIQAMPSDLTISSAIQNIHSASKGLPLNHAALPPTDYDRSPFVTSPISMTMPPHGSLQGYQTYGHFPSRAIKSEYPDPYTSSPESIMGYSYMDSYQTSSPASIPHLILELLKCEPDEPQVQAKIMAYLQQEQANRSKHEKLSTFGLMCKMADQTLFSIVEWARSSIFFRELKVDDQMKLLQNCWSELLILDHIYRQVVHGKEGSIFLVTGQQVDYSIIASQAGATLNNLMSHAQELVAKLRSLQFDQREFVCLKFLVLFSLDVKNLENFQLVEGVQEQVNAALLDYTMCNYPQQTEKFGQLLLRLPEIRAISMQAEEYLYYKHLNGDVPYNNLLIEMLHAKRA
Chain of DNA repair and recombination protein RAD54-like (Q92698 whole entry): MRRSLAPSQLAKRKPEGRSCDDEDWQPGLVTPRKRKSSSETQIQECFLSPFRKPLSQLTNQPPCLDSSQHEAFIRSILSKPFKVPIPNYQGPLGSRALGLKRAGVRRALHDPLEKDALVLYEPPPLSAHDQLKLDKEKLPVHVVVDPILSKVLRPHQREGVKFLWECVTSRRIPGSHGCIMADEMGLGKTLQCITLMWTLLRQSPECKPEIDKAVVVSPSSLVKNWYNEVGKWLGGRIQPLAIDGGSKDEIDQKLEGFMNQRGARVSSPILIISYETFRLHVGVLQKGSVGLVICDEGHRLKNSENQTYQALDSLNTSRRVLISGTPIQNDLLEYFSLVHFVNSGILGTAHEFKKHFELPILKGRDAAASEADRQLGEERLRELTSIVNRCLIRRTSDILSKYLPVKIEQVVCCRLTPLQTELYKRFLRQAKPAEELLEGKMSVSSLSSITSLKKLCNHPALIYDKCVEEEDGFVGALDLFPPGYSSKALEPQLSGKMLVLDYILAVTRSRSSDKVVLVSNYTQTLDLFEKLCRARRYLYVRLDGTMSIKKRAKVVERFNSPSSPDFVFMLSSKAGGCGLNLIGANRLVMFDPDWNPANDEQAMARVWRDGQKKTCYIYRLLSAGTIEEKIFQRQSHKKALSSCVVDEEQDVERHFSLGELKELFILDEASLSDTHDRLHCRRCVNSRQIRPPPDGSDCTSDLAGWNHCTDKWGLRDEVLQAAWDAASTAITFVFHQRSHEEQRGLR

Nc1nnc(SCc2ccc(F)cc2Cl)s1
EC50 [1]: > 53 µM (inactive) | IC50 [2]: 0.941 µM (active) | IC50 [3]: 14.3 µM (active)

CC(=O)c1ccc(C(=O)N2CCCC(C(=O)c3ccc(Cl)cc3)C2)s1 (stereo unspecified)
AC50 [4]: 2.51 µM (active)

CC(C)C(=O)Nc1ccc(NC(=S)NC(=O)c2ccc([N+](=O)[O-])cc2)cc1
IC50 [5]: > 66 µM (inactive) | IC50 [6]: > 66 µM (inactive)

Cc1sc2ncnc(NCC(O)c3ccc([N+](=O)[O-])cc3)c2c1C (stereo unspecified)
AC50 [7]: 3.56 µM (active) | IC50 [8]: 0.544 µM (active)

COc1ccc(C2Nc3ccccc3C(=O)N2c2ccccc2)cc1CSc1ccccn1 (stereo unspecified)
EC50 [1]: > 53 µM (inactive) | IC50 [2]: 17.3 µM (active) | IC50 [3]: 2.16 µM (active)

O=C(COc1ccc2c3c(c(=O)oc2c1)CCCC3)NCc1ccccn1
IC50 [9]: 35.9 µM (inactive) | IC50 [10]: 35.9 µM (inactive) | IC50 [11]: 35.9 µM (inactive)

COCCCn1c(N)c(C(=O)NCCC(C)C)c2nc3ccccc3nc21
AC50 [12]: 15.9 µM (active) | IC50 [13]: 46.2 µM (active) | AC50 [14]: 74.7 µM (active) | EC50 [15]: 12 µM (active) | EC50 [16]: 11.3 µM (active)

O=C(N[C@@H]1C/C=C\C[C@H](CC(=O)N(CCO)Cc2ccccc2)C(=O)NC[C@@H](c2ccccc2)OC1=O)OCC1c2ccccc2-c2ccccc21
AC50 [17]: 4.5 µM (active) | AC50 [18]: 4.9 µM (active) | IC50 [8]: 4.4 µM (active)

CCCc1cc(=O)oc2cc(C)cc(OCC(=O)NC3CC3)c12
IC50 [9]: 35.9 µM (inactive) | IC50 [10]: 1.31 µM (active) | IC50 [11]: 0.0932 µM (active)

Cc1ccnc(SC2CC(=O)N(c3ccccc3)C2=O)n1 (stereo unspecified)
IC50 [5]: > 66 µM (inactive) | IC50 [6]: > 66 µM (inactive)

CNC(=O)C[C@H]1CC[C@@H]2[C@H](COC[C@@H](O)CN2C(=O)Nc2cccc(OC)c2)O1
AC50 [4]: 4.57 µM (active)

CC(N)c1csc(Nc2nncc3ccccc23)n1 (stereo unspecified)
AC50 [19]: 28.5 µM (active)

CCOC(=O)Oc1c(OC)cc(C(=O)O[C@@H]2C[C@@H]3CN4CCc5c([nH]c6cc(OC)ccc56)[C@H]4C[C@@H]3[C@H](C(=O)OC)[C@H]2OC)cc1OC [SYROSINGOPINE]
AC50 [17]: 10.7 µM (active) | IC50 [20]: > 79 µM (inactive) | AC50 [18]: 22.4 µM (active) | CC50 [21]: 24.6 µM (active) | CC50 [22]: 11.9 µM (active) | AC50 [23]: 24.6 µM (active) | AC50 [24]: 50.6 µM (active)
